Data from patent EP4667464A1 (Cyrus Therapeutics Inc., priority 2023, dated 2024).
Like-named read-outs stand apart in the source and are kept apart here.

Columns and labels:
SOS1 = target: T1, SOS1 (Homo sapiens, UniProt Q07889); assay: SOS-catalyzed nucleotide exchange assay (HTRF, SOS1-mediated GTP loading of KRAS G12D); type: biochemical
T1 construct: HIS-SOS1cat (160 nM; Cytoskeleton, US); His (N); purchased Cytoskeleton
T1 sequence (Q07889 564-1049 limits assumed): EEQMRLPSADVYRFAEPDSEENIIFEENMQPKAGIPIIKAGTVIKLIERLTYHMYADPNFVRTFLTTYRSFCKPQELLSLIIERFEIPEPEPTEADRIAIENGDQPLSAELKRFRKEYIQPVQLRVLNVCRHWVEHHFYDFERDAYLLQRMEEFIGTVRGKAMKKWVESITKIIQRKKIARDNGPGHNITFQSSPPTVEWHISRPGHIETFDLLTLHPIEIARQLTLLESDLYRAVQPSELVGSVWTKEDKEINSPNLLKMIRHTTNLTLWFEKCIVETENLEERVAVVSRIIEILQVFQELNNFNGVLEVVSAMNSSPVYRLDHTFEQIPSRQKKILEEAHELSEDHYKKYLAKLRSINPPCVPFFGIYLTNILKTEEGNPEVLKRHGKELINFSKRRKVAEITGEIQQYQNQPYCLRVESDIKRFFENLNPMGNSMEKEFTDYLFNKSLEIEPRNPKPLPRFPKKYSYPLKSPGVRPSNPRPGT
Experimental: SOS1 activity was measured by SOS1-mediated GTP loading quantification of KRAS^G12D. GTP loaded KRAS^G12D was detected by HTRF (Homogeneous Time Resolved Fluorescence) using anti-GST terbium (Cisbio, France) as a donor and a fluorescence GTP analogue (EDA-GTP-DY-647P1, [DY-647P1 labeled 2'/3'-O-(2-aminoethyl-carbamoyl)guanosine-5'-triphosphate (Jena bioscience, Germany)]) as an acceptor.
KRAS^G12D working solution was prepared by adding equal amounts of GST-KRAS^G12D (100 nM) and anti-GST-terbium (2 nM; Cisbio, France) to the assay buffer and culturing on ice for 10 minutes. […] Control solution was prepared by adding equal volumes of EDA-GTP-DY-647P1 and the assay buffer for normalization control to exclude GEF-independent GTP loading and background signals.
10 uL of the KRAS^G12D solution was added to each well and incubated for 30 minutes at room temperature while shaking. HTRF was measured using a Thermo Varioskan (excitation 334 nm, emission 665 nm). The IC50 of each inhibitor was analyzed using Graphad Prism.

KRAS G12C::SOS1 = target: T2, KRAS G12C::SOS1 (Homo sapiens, UniProt Q07889); assay: KRAS G12C::SOS1 protein-protein interaction (PPI) inhibition assay (HTRF); type: binding
T2 construct: purchased CISBIO 64KRASG12PEH
T2 sequence (Q07889 1-1333): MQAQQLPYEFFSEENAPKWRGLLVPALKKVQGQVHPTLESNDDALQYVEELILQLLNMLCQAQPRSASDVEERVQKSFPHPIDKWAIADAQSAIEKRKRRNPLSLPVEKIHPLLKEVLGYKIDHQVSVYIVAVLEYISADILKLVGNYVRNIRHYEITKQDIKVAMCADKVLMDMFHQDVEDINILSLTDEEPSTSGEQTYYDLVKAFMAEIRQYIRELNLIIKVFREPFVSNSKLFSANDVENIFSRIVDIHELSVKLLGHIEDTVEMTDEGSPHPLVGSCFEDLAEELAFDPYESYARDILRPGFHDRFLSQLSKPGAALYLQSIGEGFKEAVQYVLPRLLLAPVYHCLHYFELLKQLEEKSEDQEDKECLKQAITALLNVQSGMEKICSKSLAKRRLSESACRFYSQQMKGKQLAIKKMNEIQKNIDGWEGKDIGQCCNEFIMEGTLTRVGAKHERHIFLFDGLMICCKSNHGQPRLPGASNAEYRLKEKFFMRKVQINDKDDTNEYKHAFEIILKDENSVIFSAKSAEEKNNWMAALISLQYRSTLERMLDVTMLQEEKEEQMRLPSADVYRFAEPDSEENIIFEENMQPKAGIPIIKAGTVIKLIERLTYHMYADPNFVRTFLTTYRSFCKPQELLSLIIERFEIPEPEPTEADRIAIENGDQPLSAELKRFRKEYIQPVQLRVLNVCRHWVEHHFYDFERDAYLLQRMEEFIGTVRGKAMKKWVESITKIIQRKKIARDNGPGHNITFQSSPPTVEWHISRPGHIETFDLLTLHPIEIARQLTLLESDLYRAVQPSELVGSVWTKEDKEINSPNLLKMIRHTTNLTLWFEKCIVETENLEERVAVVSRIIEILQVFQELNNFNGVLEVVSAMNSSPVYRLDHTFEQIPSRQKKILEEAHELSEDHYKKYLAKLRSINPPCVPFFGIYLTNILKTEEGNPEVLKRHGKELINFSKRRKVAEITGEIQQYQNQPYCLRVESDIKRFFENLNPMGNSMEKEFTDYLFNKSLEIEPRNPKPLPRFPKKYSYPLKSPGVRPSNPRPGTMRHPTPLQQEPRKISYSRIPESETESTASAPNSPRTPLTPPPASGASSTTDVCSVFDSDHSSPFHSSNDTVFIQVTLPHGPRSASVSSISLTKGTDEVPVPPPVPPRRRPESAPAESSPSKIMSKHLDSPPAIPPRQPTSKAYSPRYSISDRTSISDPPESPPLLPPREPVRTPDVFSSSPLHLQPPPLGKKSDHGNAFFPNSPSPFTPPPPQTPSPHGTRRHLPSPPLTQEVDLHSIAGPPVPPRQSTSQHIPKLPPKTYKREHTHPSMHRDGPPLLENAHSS
Experimental: Protein-protein interaction between SOS1 and KRAS^G12c was detected using KRAS G12C/SOS1 binding kit from CISBIO (64KRASG12PEH, CISBIO, FRANCE) according to the manufacturer's assay method. Briefly, the maximum concentration of an inhibitor sample was set to be 3 µM, and the inhibitor sample was diluted 7 times by 1/3, and samples having a total of 8 concentrations were prepared. In HTRF (Homogeneous Time-Resolved Fluorescence) exclusive 96-well low-volume white plate (66PL96005, CISBIO, FRANCE), 2 µL of an inhibitor sample prepared for each concentration, 5 µL of a mixed solution of Tag1 labeled KRAS^G12c protein and GTP diluted with the dilution solution provided by the manufacturer, and 5 µL of Tag2 labeled SOS1 protein were mixed, and added with 8 µL of a diluted solution where anti-Tag1 KRAS^G12C XL665 (HTRF acceptor) labeled antibody and anti-Tag2 SOS1 Terbium cryptate (HTRF donor) labeled antibody were mixed in an equal ratio and cultured at room temperature for 2 h.

[1] = GST-KRAS G12D, HIS-SOS1cat, compound 128 pM to 10 µM, read-out: SOS-catalyzed nucleotide exchange assay
[2] = 8 concentrations from 3 µM, three replicates, read-out: KRAS G12C::SOS1 PPI

| SMILES | IC50 (SOS1; [1]) [nM] | IC50 (KRAS G12C::SOS1; [2]) [nM] | IC50 (SOS1) [nM] | IC50 (KRAS G12C::SOS1) [nM] |
| --- | --- | --- | --- | --- |
| C[C@@H](NC(=O)c1ccc(=O)n(-c2cncc(-c3cnnn3C3CC3)c2)c1)c1cccc(C(F)(F)F)c1F [Example 1-68, 1-[5-(1-cyclopropyl-1H-1,2,3-triazol-5-yl)-3-pyridyl]-N-[(1R)-1-[2-fluoro-3-(trifluoromethyl)phenyl]ethyl]-2-oxo-2H-[1,3'-bipyridine]-5-carboxamide] | < 50 | < 50 | – | – |
| C[C@@H](NC(=O)c1ccc(=O)n(-c2cncc(-c3cnnn3[C@H]3CC3(F)F)c2)n1)c1cccc(C(F)(F)F)c1F [Example 23, 1-[5-[3-[(1S)-2,2-difluorocyclopropyl]triazol-4-yl]-3-pyridyl]-N-[(1R)-1-[2-fluoro-3-(trifluoromethyl)phenyl]ethyl]-6-oxo-pyridazine-3-carboxamide] | – | – | 50 to 150 | 50 to 150 |
| Cc1cc(C(=O)N[C@H](C)c2cccc(C(F)(F)COS(=O)(=O)c3ccccn3)c2F)nn(-c2cncc(-c3cnnn3C)c2)c1=O [Example 8, N-[(R)-1-{3-[1,1-difluoro-2-(2-pyridylsulfonyloxy)ethyl]-2-fluorophenyl}ethyl]-5-methyl-1-[5-(1-methyl-1H-1,2,3-triazol-5-yl)-3-pyridyl]-6-oxo-1,6-dihydropyridazine-3-carboxamide] | < 50 | < 50 | – | – |
| CCn1nccc1-c1cncc(-n2nc(C(=O)N[C@H](C)c3cccc(C(F)(F)CO)c3F)ccc2=O)c1 [Example 1-14, N-[(1R)-1-[3-(1,1-difluoro-2-hydroxy-ethyl)-2-fluoro-phenyl]ethyl]-1-[5-(2-ethylpyrazol-3-yl)-3-pyridyl]-6-oxo-pyridazine-3-carboxamide] | > 150 | > 150 | – | – |
| C[C@@H](NC(=O)c1ccc(=O)n(-c2cnnc(-c3ccnn3C)c2)n1)c1cccc(C(F)(F)F)c1F [Example 1-19, N-[(1R)-1-[2-fluoro-3-(trifluoromethyl)phenyl]ethyl]-1-[6-(2-methylpyrazol-3-yl)pyridazin-4-yl]-6-oxo-pyridazine-3-carboxamide] | > 150 | > 150 | – | – |
| C[C@@H](NC(=O)c1ccc(=O)n(-c2cncc(-c3cnnn3C)c2)n1)c1cccc(C(F)(F)CF)c1F [Example 1-8, (R)-N-(1-(2-fluoro-3-(1,1,2-trifluoroethyl)phenyl)ethyl)-1-(5-(1-methyl-1H-1,2,3-triazol-5-yl)pyridin-3-yl)-6-oxo-1,6-dihydropyridazine-3-carboxamide] | < 50 | 50 to 150 | – | – |
| C[C@@H](NC(=O)c1cc(C#N)c(=O)n(-c2cncc(-c3cnnn3C)c2)n1)c1cccc(C(F)(F)CO)c1F [Example 3, 5-cyano-N-[(1R)-1-[3-(1,1-difluoro-2-hydroxy-ethyl)-2-fluorophenyl]ethyl]-1-[5-(3-methyltriazol-4-yl)-3-pyridyl]-6-oxo-pyridazine-3-carboxamide] | – | – | > 150 | > 150 |
| C[C@@H](NC(=O)c1ccc(=O)n(-c2cncc(-c3cnnn3C)c2)n1)c1cccc(C(F)(F)CO)c1Cl [Example 1-3, N-[(1R)-1-[2-chloro-3-(1,1-difluoro-2-hydroxy-ethyl)phenyl]ethyl]-1-[5-(3-methyltriazol-4-yl)-3-pyridyl]-6-oxo-pyridazine-3-carboxamide] | 50 to 150 | 50 to 150 | – | – |
| CCn1nncc1-c1cncc(-n2nc(C(=O)N[C@H](C)c3cccc(C(F)(F)CO)c3F)cc(C)c2=O)c1 [Example 1-13, N-[(1R)-1-[3-(1,1-difluoro-2-hydroxy-ethyl)-2-fluoro-phenyl]ethyl]-1-[5-(3-ethyltriazol-4-yl)-3-pyridyl]-5-methyl-6-oxo-pyridazine-3-carboxamide] | < 50 | < 50 | – | – |
| C[C@H](O)c1cc(C(=O)N[C@H](C)c2cccc(C(F)(F)F)c2F)nn(-c2cncc(-c3cnnn3C)c2)c1=O (single isomer, unassigned) [Example 10] | 50 to 150 | 50 to 150 | – | – |
| C[C@@H](NC(=O)c1ccc(=O)n(-c2cncc(-c3cnnn3C3CNC3)c2)n1)c1cccc(C(F)(F)F)c1F [Example 19] | < 50 | < 50 | – | – |

Now from value to compound, other results behind:

| IC50 (SOS1; [1]) [nM] | IC50 (KRAS G12C::SOS1; [2]) [nM] | SMILES | IC50 (SOS1) [nM] | IC50 (KRAS G12C::SOS1) [nM] |
| --- | --- | --- | --- | --- |
| < 50 | < 50 | C[C@@H](NC(=O)c1ccc(=O)n(-c2cncc(-c3cnnn3C3CNC3)c2)n1)c1cccc(C(F)(F)CO)c1F [Example 20-2, (R)-1-(5-(1-(azetidin-3-yl)-1H-1,2,3-triazol-5-yl)pyridin-3-yl)-N-(1-(3-(1,1-difluoro-2-hydroxyethyl)-2-fluorophenyl)ethyl)-6-oxo-1,6-dihydropyridazine-3-carboxamide] | – | – |
| < 50 | < 50 | CC(=O)N1CCC(n2nncc2-c2cncc(-n3nc(C(=O)N[C@H](C)c4cccc(C(F)(F)F)c4F)ccc3=O)c2)CC1 [Example 20-7, (R)-1-(5-(1-(1-acetylpiperidin-4-yl)-1H-1,2,3-triazol-5-yl)pyridin-3-yl)-N-(1-(2-fluoro-3-(trifluoromethyl)phenyl)ethyl)-6-oxo-1,6-dihydropyridazine-3-carboxamide] | – | – |
| < 50 | < 50 | COC(=O)N1CC(n2nncc2-c2cncc(-n3nc(C(=O)N[C@H](C)c4cccc(C(F)(F)F)c4F)ccc3=O)c2)C1 [Example 20-11, methyl (R)-3-(5-(5-(3-((1-(2-fluoro-3-(trifluoromethyl)phenyl)ethyl)carbamoyl)-6-oxopyridazin-1(6H)-yl)pyridin-3-yl)-1H-1,2,3-triazol-1-yl)azetidine-1-carboxylate] | – | – |
| < 50 | 50 to 150 | C[C@@H](NC(=O)c1ccc(=O)n(-c2cncc(-c3cnnn3C3CN(CCO)C3)c2)n1)c1cccc(C(F)(F)F)c1F [Example 20-1, (R)-N-(1-(2-fluoro-3-(trifluoromethyl)phenyl)ethyl)-1-(5-(1-(1-(2-hydroxyethyl)azetidin-3-yl)-1H-1,2,3-triazol-5-yl)pyridin-3-yl)-6-oxo-1,6-dihydropyridazine-3-carboxamide] | – | – |
